Assay results from US20030104490A1, “Assay” (priority 2000, published 2003).

Assays:
[1] = tested on: 3T3-L1 adipocytes microinjected with the IRAP-GFP construct; test: Insulin-induced translocation of GLUT4-containing vesicles (IRAP-GFP) to the plasma membrane in 3T3-L1 adipocytes, confocal microscopy; format: cell-based; conditions: serum-starved 2 hours, 100 nM insulin for 30 minutes
Description: 3T3-L1 fibroblasts (between passages 4 and 12) were seeded onto 22 mm glass coverslips and allowed to grow to confluence. Differentiation into adipocytes was induced in DMEM containing 10% (v/v) myoclone-plus FCS, 0.25 μM dexamethasone, 0.5 mM isobutylmethylxanthine and 166 nM insulin for 2 days (day 0 to day 2). This medium was replaced with DMEM containing 10% (v/v) myoclone-plus FCS and 166 nM insulin for a further 2 days (day 2 to day 4). From day 4 onwards cells were maintained in DMEM containing 10% (v/v) myoclone-plus FCS, replacing the medium every two days. 3T3-L1 adipocytes were used between day 7 and day 10 after initiation of differentiation.
Differentiated 3T3-L1 adipocytes were microinjected with the IRAP-GFP construct used in Example 1 (pcDNA3). […]
The total level of the IRAP-GFP expression is indicated by the level of GFP fluorescence detected (this corresponds to the second detection method of the first aspect of the invention). […] The fluorescence intensity due to IRAP-GFP fluorescence and surface IRAP-GFP immunostaining was computed for each individual cell, using Leica Confocal Software, and a background fluorescence figure subtracted. For each cell, the ratio of background corrected surface:total IRAP-GFP was calculated. […] Each data point represents the red:green fluorescence ratio for one cell.

[2] = tested on: CHO-T cells expressing an IRAP-GFP construct; test: Insulin-induced translocation of IRAP-GFP (GLUT4 vesicles) to the plasma membrane, immunofluorescence, surface:total IRAP-GFP ratio; format: cell-based; conditions: unpermeabilised, anti-GFP staining vs GFP fluorescence, 200 nM insulin for 30 min, inhibitor (wortmannin) treatment preceding stimulation, 20 fields of view
Source text: The IRAP-GFP construct used in this example was constructed using an IRAP fragment 66-533 (from the start site to the end of the extracellular ‘stalk’ region) which was generated by PCR using specific primers from a partial cDNA IRAP clone available to the inventors. The resulting fragment was cloned into the pcDNA3 vector using the flanking restriction enzyme sites. GFP3 with a C-terminal myc-tag was also generated by PCR using specific primers and the product cloned into pcDNA3 downstream of the IRAP insert.
CHO-T cells were transfected or microinjected with the IRAP-GFP construct and 24 h later were stimulated without or with 200 nM insulin for 30 min. This was preceded by treatment with an inhibitor (e.g. wortmannin) of insulin signalling.
Subsequently cells were fixed and stained with anti-GFP antibodies (Roche) without prior permeabilisation, as described below, in order to visualise GFP exposed on the surface of the plasma membrane only. […]
The total IRAP-GFP expression level is given by the level of GFP fluorescence (and this corresponds to the second detection method of the first aspect of the invention). […]
Fluorescence intensity due to IRAP-GFP fluorescence and surface IRAP-GFP immunostaining was then computed from cells imaged in 20 fields of view for each treatment condition. Results are expressed as an average ratio of surface:total IRAP-GFP.

Row | Molecule | translocation of IRAP-GFP to the plasma membrane (red:green ratio surface:total IRAP-GFP per cell, FIG. 4) [1] | MEAN R/G (average ratio of surface:total IRAP-GFP) [2]
1 | insulin | a significant proportion of cell undergo translocation | 1.252
2 | COC[C@H]1OC(=O)c2coc3c2[C@@]1(C)C1=C(C3=O)[C@@H]2CCC(=O)[C@@]2(C)C[C@H]1OC(C)=O [Wortmannin, wortmannin, reference compound] |  | 0.363
